This passage reports pest or weed control and chromatographic logP results from patent US20090030024A1, “THIAZOLES AS FUNGICIDES” (priority 2005, published 2009).

One data set deals with Leptosphaeria nodorum. Nature of the data set: Leptosphaeria nodorum test (wheat)/protective. It is filed as in vivo. The note with it: Parastagonospora nodorum, 240 h, protective spray, active compound concentration 1000 ppm, evaluation 10 days after inoculation, read-out: efficacy. Here is the method: Leptosphaeria Nodorum Test (Wheat)/Protective [table] […] After the spray coating has dried on, the plants are sprayed with a spore suspension of Leptosphaeria nodorum. The plants remain in an incubation cabin at 20° C. and 100% relative atmospheric humidity for 48 hours. The plants are placed in a greenhouse at a temperature of about 20° C. and a relative atmospheric humidity of 80%.

The subject of the next data set is Fusarium graminearum. Description: whole plant or invertebrate. It is filed as in vivo. The note with it: in Hordeum vulgare, 96 h, read-out: efficacy.
The test system of another data set is Phytophthora infestans. Description: whole plant or invertebrate. Type of data set: in vivo. The note with it: in Solanum lycopersicum, 168 h, read-out: efficacy.
A short description of data set [1]: logP determination by retention times (calibration with alkan-2-ones).

Some results are limits rather than exact numbers.

As usually defined, the chromatographic logP is a lipophilicity value derived from retention on a column. Regarding `COc1ccc(Nc2nccc(-c3sc(C(C)C)nc3C)n2)cn1` [Example 247, 4-(2-isopropyl-4-methyl-1,3-thiazol-5-yl)-N-(6-methoxypyridin-3-yl)pyrimidine-2-amine], the pest or weed control at 1000 ppm in the data set with Leptosphaeria nodorum and with Fusarium graminearum was at least 70% in each case. For the same compound, the pest or weed control at 500 ppm in the data set with Phytophthora infestans is at least 70%. Also, the chromatographic logP in data set [1] worked out at 2.76.
In the case of `Cc1nc(C(C)C)sc1-c1ccnc(Nc2ccccc2)n1` [Example 251, 4-(2-isopropyl-4-methyl-1,3-thiazol-5-yl)-N-phenylpyrimidine-2-amine], the pest or weed control at 1000 ppm in the data set with Leptosphaeria nodorum and with Fusarium graminearum was at least 70% each time. In addition, the pest or weed control at 500 ppm with Phytophthora infestans is at least 70%. Further, the chromatographic logP in data set [1] is 3.55.
With `COc1cc(Nc2nccc(-c3sc(C)nc3C)n2)cc(OC)c1OC` [Example 182, 4-(2,4-dimethyl-1,3-thiazol-5-yl)-N-(3,4,5-trimethoxyphenyl)pyrimidine-2-amine], the pest or weed control at 1000 ppm in the data set on Leptosphaeria nodorum and with Fusarium graminearum was at least 70% throughout. Also, the pest or weed control at 500 ppm with Phytophthora infestans was at least 70%. Also, the chromatographic logP in data set [1] was determined as 2.1.
`COc1cc(Nc2nccc(-c3sc(C(C)C)nc3C)n2)cc(OC)c1OC` [Example 244, 4-(2-isopropyl-4-methyl-1,3-thiazol-5-yl)-N-(3,4,5-trimethoxyphenyl)pyrimidine-2-amine]: the pest or weed control at 1000 ppm in the data set with Leptosphaeria nodorum and in the data set with Fusarium graminearum was at least 70% each time. In data set [1], this compound yielded a chromatographic logP of 2.99.
